# Data as given in patent US12344597B2, “Alkoxy-substituted pyridinyl derivatives as LPA1 receptor antagonists and their use in the treatment of fibrosis” (IDORSIA PHARMACEUTICALS LTD, priority 2018, dated 2025).
# Biological target: human LPA1 receptor (Homo sapiens (Human), UniProt Q92633)
# Assay: Beta-arrestin recruitment assay to determine IC50 values for human LPAR1
# Format: cell-based
# Conditions: antagonist mode, Tango EDG2-bla U2OS cells, LPA 18:1 500 nM final
# Source text: Beta-Arrestin Recruitment Assay to Determine IC50 Values for Human LPAR1
# The Tango™ EDG2-bla U2OS cells are obtained from Invitrogen. These cells contain the human LPA1 receptor cDNA linked to a TEV protease site and a Gal4-VP16 transcription factor integrated into the Tango™ GPCR-bla U2OS parental cell line. This parental cell line stably expresses a beta-arrestin/TEV protease fusion protein and the beta-lactamase (bla) reporter gene under the control of a UAS response element. Upon LPA (agonist) binding, LPA1 receptor gets activated, leading to arrestin-protease recruitment and proteolytic release of the transcription factor: The transcription factor then regulates transcription of a beta-lactamase reporter construct, which is measured upon addition of the live-cell substrate.
# 10′000 Tango™ EDG2-bla U2OS cells are seeded in a 384-well black with clear bottom plate in 30 μl Freestyle 293 Expression Medium (Invitrogen) and incubated for 20 h at 37° C., 5% CO2. […] IC50 is the concentration of antagonist inhibiting 50% of the maximal response.
# human LPA1 receptor, sequence (Q92633 whole entry): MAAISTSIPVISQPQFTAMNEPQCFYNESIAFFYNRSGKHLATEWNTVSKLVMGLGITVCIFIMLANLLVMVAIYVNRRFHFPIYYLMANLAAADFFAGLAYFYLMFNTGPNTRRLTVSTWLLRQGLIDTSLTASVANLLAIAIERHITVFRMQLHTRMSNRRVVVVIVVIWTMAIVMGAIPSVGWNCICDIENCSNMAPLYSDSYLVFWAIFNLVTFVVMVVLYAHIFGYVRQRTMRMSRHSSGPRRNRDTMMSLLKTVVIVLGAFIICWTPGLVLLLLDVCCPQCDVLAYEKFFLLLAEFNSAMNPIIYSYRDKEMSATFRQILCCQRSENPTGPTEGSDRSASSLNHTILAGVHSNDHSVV
row,IC50,Structure (SMILES)
1,3 nM,"Cc1ccc(NC(=O)C2(c3ccccc3C(C)C)CN(c3ccnc(C)n3)C2)c(OC(F)F)n1 [Ex 18-34, N-(2-(difluoromethoxy)-6-methylpyridin-3-yl)-3-(2-isopropylphenyl)-1-(2-methylpyrimidin-4-yl)azetidine-3-carboxamide]"
2,6 nM,"Cc1ccc(NC(=O)C2(c3ccccc3C(C)C)CCN(C(=O)OCC(=O)O)CC2)c(OC(F)F)n1 [Ex 14-3, 2-((4-((2-(difluoromethoxy)-6-methylpyridin-3-yl)carbamoyl)-4-(2-isopropylphenyl)piperidine-1-carbonyl)oxy)acetic acid]"
3,5 nM,"CC(C)c1ccccc1C1(C(=O)Nc2cccnc2OC(F)F)CN(c2ncc(C#N)cn2)C1 [Ex 18-25, 1-(5-cyanopyrimidin-2-yl)-N-(2-(difluoromethoxy)pyridin-3-yl)-3-(2-isopropylphenyl)azetidine-3-carboxamide]"
4,22 nM,"NS(=O)(=O)N1CC(C(=O)Nc2ncc(Cl)cc2OC(F)F)(c2ccccc2C2CCCC2)C1 [Example 81-6, N-(5-chloro-3-(difluoromethoxy)pyridin-2-yl)-3-(2-cyclopentylphenyl)-1-sulfamoylazetidine-3-carboxamide]"
5,74 nM,"COC(=O)COC(=O)N1CC(C(=O)Nc2ncc(C)cc2OC(F)F)(c2ccccc2C(C)C)C1 [Ex 83-1, 2-methoxy-2-oxoethyl 3-((3-(difluoromethoxy)-5-methylpyridin-2-yl)carbamoyl)-3-(2-isopropylphenyl)azetidine-1-carboxylate]"
6,9 nM,"Cc1ccc(NC(=O)C2(c3ccccc3C(C)C)CCN(C(=O)NCCO)CC2)c(OC(F)F)n1 [Ex 17-22, N4-(2-(difluoromethoxy)-6-methylpyridin-3-yl)-N1-(2-hydroxyethyl)-4-(2-isopropylphenyl)piperidine-1,4-dicarboxamide]"

# More lines, now with the values behind:
row,Structure (SMILES),IC50
1,"CC(=O)N(O)CCC(=O)N1CC(C(=O)Nc2ccc(C)nc2OC(F)F)(c2ccccc2C(C)C)C1 [Ex 12-132, N-(2-(difluoromethoxy)-6-methylpyridin-3-yl)-1-(3-(N-hydroxyacetamido)propanoyl)-3-(2-isopropylphenyl)azetidine-3-carboxamide]",35 nM
2,"Cc1ccc(NC(=O)C2(c3ccccc3C(C)C)CN(C(=O)C[C@@H](C)C(=O)O)C2)c(OC(F)F)n1 [Ex 12-80, (R)-4-(3-((2-(difluoromethoxy)-6-methylpyridin-3-yl)carbamoyl)-3-(2-isopropylphenyl)azetidin-1-yl)-2-methyl-4-oxobutanoic acid]",18 nM
3,"CC(C)c1ccccc1C1(C(=O)Nc2cc(F)cnc2OC(F)F)CNC1 [Ex 8, N-(2-(difluoromethoxy)-5-fluoropyridin-3-yl)-3-(2-isopropylphenyl)azetidine-3-carboxamide]",338 nM
4,"COC(=O)CCC(=O)N1CC(C(=O)Nc2ccc(C)nc2OC(C)C)(c2ccccc2C(C)C)C1 [Ex 12-67, methyl 4-(3-((2-isopropoxy-6-methylpyridin-3-yl)carbamoyl)-3-(2-isopropylphenyl)azetidin-1-yl)-4-oxobutanoate]",75 nM
5,"Cc1ccc(NC(=O)C2(c3ccccc3C(C)C)CCN(C[C@@H](O)CO)CC2)c(OC(F)F)n1 [Ex 11-19, (R)-N-(2-(difluoromethoxy)-6-methylpyridin-3-yl)-1-(2,3-dihydroxypropyl)-4-(2-isopropylphenyl)piperidine-4-carboxamide]",14 nM
6,"Cc1ccc(NC(=O)C2(c3ccccc3C(C)C)CN(C(=O)CC3CCN(C)CC3)C2)c(OC(F)F)n1 [Ex 12-31, N-(2-(difluoromethoxy)-6-methylpyridin-3-yl)-3-(2-isopropylphenyl)-1-(2-(1-methylpiperidin-4-yl)acetyl)azetidine-3-carboxamide]",337 nM
7,"Cc1ccc(NC(=O)C2(c3ccccc3C(C)C)CN(C(=O)CC3(C(=O)O)CCOCC3)C2)c(OC(F)F)n1 [Ex 12-122, 4-(2-(3-((2-(difluoromethoxy)-6-methylpyridin-3-yl)carbamoyl)-3-(2-isopropylphenyl)azetidin-1-yl)-2-oxoethyl)tetrahydro-2H-pyran-4-carboxylic acid]",15 nM
8,"Cc1ccc(NC(=O)C2(c3ccccc3C(C)C)CN(C(=O)CC3CCN(CCF)CC3)C2)c(OC(F)F)n1 [Ex 12-141, N-(2-(difluoromethoxy)-6-methylpyridin-3-yl)-1-(2-(1-(2-fluoroethyl)piperidin-4-yl)acetyl)-3-(2-isopropylphenyl)azetidine-3-carboxamide]",204 nM
9,"Cc1ccc(NC(=O)C2(c3ccccc3C(C)C)CN(CCC3(C(=O)O)CCC3)C2)c(OC(F)F)n1 [Ex 11-73, 1-(2-(3-((2-(difluoromethoxy)-6-methylpyridin-3-yl)carbamoyl)-3-(2-isopropylphenyl)azetidin-1-yl)ethyl)cyclobutane-1-carboxylic acid]",46 nM
10,"Cc1ccc(NC(=O)C2(c3ccccc3C(C)C)CN(CCC(C)(C)C(=O)NS(C)(=O)=O)C2)c(OC(F)F)n1 [Ex 53, N-(2-(difluoromethoxy)-6-methylpyridin-3-yl)-1-(3,3-dimethyl-4-(methylsulfonamido)-4-oxobutyl)-3-(2-isopropylphenyl)azetidine-3-carboxamide]",17 nM
11,"Cc1ccc(NC(=O)C2(c3ccccc3C(C)C)CN(CC3(C(=O)O)CC3)C2)c(OC(F)F)n1 [Ex 11-27, 1-((3-((2-(difluoromethoxy)-6-methylpyridin-3-yl)carbamoyl)-3-(2-isopropylphenyl)azetidin-1-yl)methyl)cyclopropane-1-carboxylic acid]",38 nM
12,"Cc1ccc(NC(=O)C2(c3ccccc3C3CCOCC3)CN(c3nc(C(=O)O)co3)C2)c(OC(F)F)n1 [Ex 32, 2-(3-((2-(difluoromethoxy)-6-methylpyridin-3-yl)carbamoyl)-3-(2-(tetrahydro-2H-pyran-4-yl)phenyl)azetidin-1-yl)oxazole-4-carboxylic acid]",447 nM
13,"Cc1ccc(NC(=O)C2(c3ccccc3C(C)C)CN(CC(C)(C)CO)C2)c(OC(F)F)n1 [Ex 11-17, N-(2-(difluoromethoxy)-6-methylpyridin-3-yl)-1-(3-hydroxy-2,2-dimethylpropyl)-3-(2-isopropylphenyl)azetidine-3-carboxamide]",48 nM
14,"Cc1ccc(NC(=O)C2(c3ccccc3C(C)C)CN(Cc3ncco3)C2)c(OC(F)F)n1 [Ex 11-47, N-(2-(difluoromethoxy)-6-methylpyridin-3-yl)-3-(2-isopropylphenyl)-1-(oxazol-2-ylmethyl)azetidine-3-carboxamide]",41 nM
15,"CC(C)c1cccnc1C1(C(=O)Nc2ncc(Cl)cc2OC(F)F)CNC1 [Ex 77, N-(5-chloro-3-(difluoromethoxy)pyridin-2-yl)-3-(3-isopropylpyridin-2-yl)azetidine-3-carboxamide]",1030 nM
16,"CC(C)c1ccccc1C1(C(=O)Nc2cccnc2OC(F)F)CN(C(=O)CC(C)(C)C(=O)O)C1 [Ex 12-84, 4-(3-((2-(difluoromethoxy)pyridin-3-yl)carbamoyl)-3-(2-isopropylphenyl)azetidin-1-yl)-2,2-dimethyl-4-oxobutanoic acid]",51 nM
17,"COC(=O)c1ccc(CN2CC(C(=O)Nc3ccc(C)nc3OC(F)F)(c3ccccc3C(C)C)C2)cn1 [Ex 11-52, methyl 5-((3-((2-(difluoromethoxy)-6-methylpyridin-3-yl)carbamoyl)-3-(2-isopropylphenyl)azetidin-1-yl)methyl)picolinate]",79 nM
